Assay results published in article PMC10053552, “Multiple Bioactivities of Peptides from Hydrolyzed Misgurnus anguillicaudatus” (Molecules, 2023).

Tests used:
DPPH scavenging activity = format: biochemical; conditions: 0.5 mg/mL, glutathione at the same concentration
[1] = test system: pancreatic cholesterol esterase (CE); test: Pancreatic CE inhibitory activity; format: biochemical; conditions: 1 mg/mL (Figure 6a); pNPB substrate, pH 7.2, 37 °C, 30 min, 405 nm
[2] = Hydroxyl radical scavenging activity; format: biochemical; conditions: 0.5 mg/mL; amount higher than that of glutathione at the same concentration
[3] = target: angiotensin-converting enzyme (ACE) (UniProt P12821)
[4] = target: pancreatic cholesterol esterase (CE) (UniProt P19835)
UniProt P19835, sequence (P19835 21-753): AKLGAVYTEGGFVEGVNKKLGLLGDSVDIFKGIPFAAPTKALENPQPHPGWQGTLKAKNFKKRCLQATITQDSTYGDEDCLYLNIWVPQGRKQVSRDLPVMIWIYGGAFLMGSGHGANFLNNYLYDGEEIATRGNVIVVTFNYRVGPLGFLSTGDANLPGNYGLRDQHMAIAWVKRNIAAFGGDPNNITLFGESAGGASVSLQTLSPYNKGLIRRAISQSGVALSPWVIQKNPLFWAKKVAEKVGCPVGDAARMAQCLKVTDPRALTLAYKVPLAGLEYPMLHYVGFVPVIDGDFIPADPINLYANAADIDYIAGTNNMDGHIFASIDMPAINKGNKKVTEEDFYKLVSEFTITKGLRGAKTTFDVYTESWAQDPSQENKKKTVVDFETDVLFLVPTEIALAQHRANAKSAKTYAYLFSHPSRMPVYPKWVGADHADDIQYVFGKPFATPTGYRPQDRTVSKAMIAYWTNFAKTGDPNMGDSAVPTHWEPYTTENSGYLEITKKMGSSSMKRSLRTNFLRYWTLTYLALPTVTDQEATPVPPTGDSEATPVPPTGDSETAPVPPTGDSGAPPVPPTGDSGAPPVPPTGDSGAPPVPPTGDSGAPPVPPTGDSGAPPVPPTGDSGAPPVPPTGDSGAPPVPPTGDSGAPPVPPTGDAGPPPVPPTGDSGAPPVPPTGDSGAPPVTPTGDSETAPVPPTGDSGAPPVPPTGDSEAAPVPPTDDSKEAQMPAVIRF

UniProt P12821, sequence (P12821 30-1256): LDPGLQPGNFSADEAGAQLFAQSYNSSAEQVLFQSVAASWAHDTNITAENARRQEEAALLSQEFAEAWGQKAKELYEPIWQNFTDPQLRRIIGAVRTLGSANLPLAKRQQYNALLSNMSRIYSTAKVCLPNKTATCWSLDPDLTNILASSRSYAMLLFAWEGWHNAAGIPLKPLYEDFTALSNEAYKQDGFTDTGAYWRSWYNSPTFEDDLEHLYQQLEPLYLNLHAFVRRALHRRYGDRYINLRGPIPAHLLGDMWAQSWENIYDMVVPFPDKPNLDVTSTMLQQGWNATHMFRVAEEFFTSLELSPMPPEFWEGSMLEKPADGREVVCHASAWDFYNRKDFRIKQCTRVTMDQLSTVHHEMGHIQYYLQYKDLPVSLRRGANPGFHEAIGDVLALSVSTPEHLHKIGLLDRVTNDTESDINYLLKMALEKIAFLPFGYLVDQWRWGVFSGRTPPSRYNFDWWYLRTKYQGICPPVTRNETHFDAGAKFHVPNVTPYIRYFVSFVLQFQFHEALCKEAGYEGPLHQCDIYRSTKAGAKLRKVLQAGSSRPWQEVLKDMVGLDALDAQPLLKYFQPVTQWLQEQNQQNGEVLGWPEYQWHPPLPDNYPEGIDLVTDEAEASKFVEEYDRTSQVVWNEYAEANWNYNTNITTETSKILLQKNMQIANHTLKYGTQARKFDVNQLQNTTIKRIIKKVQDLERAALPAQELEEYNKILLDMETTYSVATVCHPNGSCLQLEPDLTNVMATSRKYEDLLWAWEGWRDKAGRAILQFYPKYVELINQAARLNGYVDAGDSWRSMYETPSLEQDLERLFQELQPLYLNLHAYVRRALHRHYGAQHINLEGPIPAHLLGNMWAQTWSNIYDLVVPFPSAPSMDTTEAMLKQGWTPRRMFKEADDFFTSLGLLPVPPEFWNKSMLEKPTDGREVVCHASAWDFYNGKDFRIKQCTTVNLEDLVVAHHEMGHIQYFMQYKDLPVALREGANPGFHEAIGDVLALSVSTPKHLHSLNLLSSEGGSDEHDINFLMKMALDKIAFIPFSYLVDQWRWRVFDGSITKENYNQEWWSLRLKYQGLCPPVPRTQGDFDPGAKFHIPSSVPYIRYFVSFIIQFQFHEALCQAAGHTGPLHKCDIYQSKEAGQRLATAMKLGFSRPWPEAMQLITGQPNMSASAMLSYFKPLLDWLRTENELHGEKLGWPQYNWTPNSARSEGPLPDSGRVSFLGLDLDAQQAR

Molecule: NDHFVKL [Peptide D-3, peptide NDHFVKL identified in loach hydrolysate component F2, solid-phase synthesized]
- DPPH scavenging activity as percentage of that of glutathione (DPPH scavenging activity): more than 90%
- Pancreatic CE inhibition [1]: exhibited inhibitory effects on pancreatic CE

Molecule: SERDPSNIKWGDAGAQ [Peptide D-1, peptide … identified in loach hydrolysate component F2, solid-phase synthesized]
- DPPH scavenging activity as percentage of that of glutathione (DPPH scavenging activity): more than 90%
- Hydroxyl radical scavenging activity: excess over glutathione [2]: 15.87%

Molecule: DAGAGIAL [Peptide D-5, peptide DAGAGIAL identified in loach hydrolysate component F2, solid-phase synthesized]
- DPPH scavenging activity as percentage of that of glutathione (DPPH scavenging activity): more than 90%

Molecule: AFRVPTP [peptide D-4 (AFRVPTP)]
- ACE inhibitory activity, percent inhibition (FAPGG hydrolysis; peptide concentration not given) [3]: 92.1%
- IC50 of ACE inhibition (enzyme activity, FAPGG hydrolysis, absorbance at 340 nm, 37 °C, pH 8.3) [3]: 0.12 mM

Molecule: TVDGPSGKLWR [peptide D-2 (…)]
- IC50 of pancreatic CE inhibition (enzyme activity, pNPB hydrolysis, absorbance at 405 nm, 37 °C, pH 7.2) [4]: 2.62 mM
